Measurements as given in paper PMC10374968, “Drosophila class-I myosins that can impact left-right asymmetry have distinct ATPase kinetics” (The Journal of Biological Chemistry, 2023).
Like-named read-outs stand apart in the source and are kept apart here.

Assays:
[1] = target: T1, myo1D (myosin-1D; myo31DF) (Drosophila melanogaster, UniProt Q23978); assay: stopped-flow pyrene-actin fluorescence, slow-phase amplitude vs MgADP, quadratic fit; assay type: binding; design: full-length, C-terminal FLAG-Avi tags kept (biotinylated for gliding); baculovirus, Sf9 or Hi5 insect cells; heavy chain 117 kDa, calmodulin light chains; with Calmodulin (Gallus gallus, recombinant); Actin, alpha skeletal muscle (Oryctolagus cuniculus); conditions: actomyosin complex; chased with 1 mM MgATP; KMg25: 10 mM Mops pH 7.0, 25 mM KCl, 1 mM MgCl2, 1 mM EGTA, 1 mM DTT; 20 C
[2] = target: T1, myo1D (myosin-1D; myo31DF); conditions: read-out: Myo1D; rapid-equilibrium binding step to actomyosin (printed in μM, used as association constant in Equation 2); KMg25 pH 7.0, 1 mM MgCl2; 20 C
Source text: stopped-flow MgATP-induced dissociation from pyrene-actin, hyperbolic fit on myo1D (myosin-1D; myo31DF)

[3] = target: myo1C (myosin-1C; myo61F) (Drosophila melanogaster, UniProt Q23979); conditions: read-out: Myo1C; rapid-equilibrium binding step to actomyosin (printed in μM, used as association constant in Equation 2); KMg25 pH 7.0, 1 mM MgCl2; 20 C
Chain of myo1C (myosin-1C; myo61F) (Q23979 whole entry): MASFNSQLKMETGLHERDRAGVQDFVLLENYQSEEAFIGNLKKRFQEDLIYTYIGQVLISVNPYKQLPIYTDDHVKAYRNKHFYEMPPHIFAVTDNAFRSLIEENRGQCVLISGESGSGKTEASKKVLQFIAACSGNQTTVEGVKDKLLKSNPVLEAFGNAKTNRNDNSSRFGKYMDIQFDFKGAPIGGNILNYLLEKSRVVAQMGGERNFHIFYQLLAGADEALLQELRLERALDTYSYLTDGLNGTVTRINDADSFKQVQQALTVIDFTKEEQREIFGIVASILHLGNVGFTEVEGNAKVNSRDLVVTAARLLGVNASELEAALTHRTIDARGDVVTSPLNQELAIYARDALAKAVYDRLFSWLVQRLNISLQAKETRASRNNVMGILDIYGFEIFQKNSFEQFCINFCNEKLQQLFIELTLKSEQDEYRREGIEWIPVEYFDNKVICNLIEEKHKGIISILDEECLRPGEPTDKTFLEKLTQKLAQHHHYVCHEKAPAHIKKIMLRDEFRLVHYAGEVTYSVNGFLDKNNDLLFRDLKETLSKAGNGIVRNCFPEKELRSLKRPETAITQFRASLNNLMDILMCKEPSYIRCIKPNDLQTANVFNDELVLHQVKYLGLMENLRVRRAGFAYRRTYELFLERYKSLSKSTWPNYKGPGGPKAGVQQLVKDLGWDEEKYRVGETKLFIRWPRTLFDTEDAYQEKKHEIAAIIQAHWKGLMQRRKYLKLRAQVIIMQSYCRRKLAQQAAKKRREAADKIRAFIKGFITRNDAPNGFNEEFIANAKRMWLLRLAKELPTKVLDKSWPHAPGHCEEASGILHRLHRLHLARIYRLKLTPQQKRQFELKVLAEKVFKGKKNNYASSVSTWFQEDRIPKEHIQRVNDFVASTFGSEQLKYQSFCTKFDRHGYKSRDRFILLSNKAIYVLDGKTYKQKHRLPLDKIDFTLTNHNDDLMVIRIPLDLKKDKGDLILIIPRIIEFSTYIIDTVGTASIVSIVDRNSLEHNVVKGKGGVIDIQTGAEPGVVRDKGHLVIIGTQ
Source text: stopped-flow MgATP-induced dissociation from pyrene-actin, hyperbolic fit on myo1C (myosin-1C; myo61F)

T1 sequence (Q23978 whole entry): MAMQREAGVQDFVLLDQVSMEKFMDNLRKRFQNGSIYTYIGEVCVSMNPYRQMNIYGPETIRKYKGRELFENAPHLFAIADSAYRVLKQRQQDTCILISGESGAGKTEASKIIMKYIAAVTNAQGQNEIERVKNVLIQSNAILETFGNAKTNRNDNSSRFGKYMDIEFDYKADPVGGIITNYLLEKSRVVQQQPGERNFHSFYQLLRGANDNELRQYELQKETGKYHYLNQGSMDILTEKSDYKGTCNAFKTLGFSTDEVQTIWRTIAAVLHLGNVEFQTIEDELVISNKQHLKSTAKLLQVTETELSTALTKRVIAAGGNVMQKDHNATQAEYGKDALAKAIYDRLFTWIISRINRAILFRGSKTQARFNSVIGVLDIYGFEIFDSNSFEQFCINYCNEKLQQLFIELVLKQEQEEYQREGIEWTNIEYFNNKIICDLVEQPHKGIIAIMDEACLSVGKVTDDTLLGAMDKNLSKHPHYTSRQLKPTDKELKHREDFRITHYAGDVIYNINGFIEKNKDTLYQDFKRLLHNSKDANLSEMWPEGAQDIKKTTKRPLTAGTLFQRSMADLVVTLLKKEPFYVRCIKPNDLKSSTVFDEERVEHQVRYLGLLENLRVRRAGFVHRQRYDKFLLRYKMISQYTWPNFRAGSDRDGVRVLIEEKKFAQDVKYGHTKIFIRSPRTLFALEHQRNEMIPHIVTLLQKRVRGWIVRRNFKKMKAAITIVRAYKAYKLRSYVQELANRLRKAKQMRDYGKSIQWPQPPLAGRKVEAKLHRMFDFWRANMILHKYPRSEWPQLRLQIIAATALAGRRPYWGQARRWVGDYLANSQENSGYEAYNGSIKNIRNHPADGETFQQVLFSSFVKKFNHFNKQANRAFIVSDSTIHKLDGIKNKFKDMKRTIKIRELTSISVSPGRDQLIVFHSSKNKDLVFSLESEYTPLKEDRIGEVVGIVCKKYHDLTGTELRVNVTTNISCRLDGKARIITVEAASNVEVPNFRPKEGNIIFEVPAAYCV

Nc1ncnc2c1ncn2[C@@H]1O[C@H](COP(=O)(O)OP(=O)(O)O)[C@@H](O)[C@H]1O [MgADP]
Kd [1]: 0.044 ± 0.002 µM

Nc1ncnc2c1ncn2[C@@H]1O[C@H](COP(=O)(O)OP(=O)(O)OP(=O)(O)O)[C@@H](O)[C@H]1O [MgATP]
Kd [2]: 118 ± 15 µM
Kd [3]: 73 ± 11 µM
